This is an account of results in patent publication US20220218852A1, “NOVEL RADIOLABELLED CXCR4-TARGETING COMPOUNDS FOR DIAGNOSIS AND THERAPY” (PROVINCIAL HEALTH SERVICES AUTHORITY, priority 2019, published 2022).

Where two headings read alike, the source gives them in different places. Positions of bridges follow the written chain, without caps; N, C: chain ends. Non-standard residues stand in square brackets, D forms with d. Residues, ends and D or L forms follow the SMILES beside them. Groups on a side chain read outwards from the residue. Chains are numbered I, II in the order given. *: point of attachment. X5 = C[N+](C)(Cc1cn(CC(=O)*)nn1)C[B-](F)(F)F; 2Nal = N[C@@H](Cc1ccc2ccccc2c1)C(=O)O; X3 = C[N+](C)(CCCC(=O)*)C[B-](F)(F)F; Lys(iPr) = CC(C)NCCCC[C@H](N)C(=O)O

The target of experiment [1] is T1, CXCR4 (Homo sapiens, UniProt P61073).
T1 construct: expressed in transfected cells; host or cells: CHO:CXCR4 cells (gift from NIH); CHO:WT used as the control line
Kind of experiment: Competition binding assay ([^125I]SDF-1α, CHO:CXCR4 cells). The settings on record: competitive binding vs [^125I]SDF-1α, read-out: IC50 (nM), binding affinity for CXCR4. As to the method: The binding affinities of nonlabelled peptides for CXCR4 were determined using a competition binding assay using the CHO:CXCR4 cells. Briefly, CHO:CXCR4 cells (200,000 cells/well) were plated in a 24-well BioCoat™ Poly-D-Lysine Multiwell Plates (Corning) the previous night. The next day, each well was incubated with RPMI-1640 medium (Life Technologies Corporations) supplemented with 20 mM HEPES and 2 mg/mL BSA, [^125I]SDF-1α (0.01 nM, Perkin Elmer) and competing non-radioactive ligands ([…]) and incubated for 1-1.5 hours at 27° C. with moderate shaking. After incubation, the cells were washed with ice-cold PBS twice, trypsinized and counted on a Perkin Elmer WIZARD 2480 gamma counter. IC50 values were determined by a nonlinear regression analysis to fit a logistic equation to the competition data using GraphPad Prism 7.

The target in experiment [2] is T1, CXCR4. The settings on record: Peng et al. 2015; read-out: IC50, block SDF-1a binding to CXCR4; cited from earlier work.

T1 sequence (P61073 whole entry): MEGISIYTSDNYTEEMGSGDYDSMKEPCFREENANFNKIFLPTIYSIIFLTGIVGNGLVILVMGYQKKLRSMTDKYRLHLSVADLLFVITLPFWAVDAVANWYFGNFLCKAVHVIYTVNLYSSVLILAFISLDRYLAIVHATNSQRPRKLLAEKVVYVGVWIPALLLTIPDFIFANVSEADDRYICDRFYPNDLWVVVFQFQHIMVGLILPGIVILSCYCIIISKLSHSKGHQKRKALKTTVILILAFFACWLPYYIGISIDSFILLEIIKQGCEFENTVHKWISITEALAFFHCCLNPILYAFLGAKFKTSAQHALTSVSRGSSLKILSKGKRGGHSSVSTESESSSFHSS

Consider `CC(C)NCCCC[C@@H]1NC(=O)[C@H](Cc2ccc(O)cc2)NC(=O)[C@H](Cc2ccccc2)NC(=O)CC[C@H](C(=O)N[C@@H](CCCCNC(C)C)C(=O)N[C@@H](CCCCNC(=O)[C@H](CCC(=O)O)NC(=O)[C@H](CCC(=O)O)NC(=O)[C@H](CCC(=O)O)NC(=O)[C@H](CCCCNC(=O)[C@H](CCC(=O)O)NC(=O)Cn2cc(C[N+](C)(C)C[B-](F)(F)F)nn2)NC(=O)[C@H](CCC(=O)O)NC(=O)Cn2cc(C[N+](C)(C)C[B-](F)(F)F)nn2)C(N)=O)NC(=O)CNC(=O)[C@H](Cc2ccc3ccccc3c2)NC(=O)[C@@H](CCCNC(=N)N)NC1=O` [BL04] (I: FY[Lys(iPr)][dR][2Nal]G[dE][Lys(iPr)]K-NH2 / II: X5-EK([Glu-X5])EEE; amide I:9-II:C; lactam I:N-I:7), for which, on CXCR4 [1], the IC50 (as a rule, the concentration at which inhibition is half-maximal) was found to be 63 ± 9 nM.
Still for that read-out and setting: to `CC(C)NCCCC[C@@H]1NC(=O)[C@H](Cc2ccc(O)cc2)NC(=O)[C@H](Cc2ccccc2)NC(=O)CC[C@H](C(=O)N[C@@H](CCCCNC(C)C)C(=O)N[C@@H](CCCCNC(=O)[C@H](CCC(=O)O)NC(=O)[C@H](CCC(=O)O)NC(=O)[C@H](CCC(=O)O)NC(=O)CCC[N+](C)(C)C[B-](F)(F)F)C(N)=O)NC(=O)CNC(=O)[C@H](Cc2ccc3ccccc3c2)NC(=O)[C@@H](CCCNC(=N)N)NC1=O` [BL08] (FY[Lys(iPr)][dR][2Nal]G[dE][Lys(iPr)]K([Glu-Glu-Glu-X3])-NH2; lactam N-7) belongs 11.6 ± 7 nM; to `CC(C)NCCCC[C@@H]1NC(=O)[C@H](Cc2ccc(O)cc2)NC(=O)[C@H](Cc2ccccc2)NC(=O)CC[C@H](C(=O)N[C@@H](CCCCNC(C)C)C(=O)N[C@@H](CCCCNC(=O)[C@H](CCC(=O)O)NC(=O)[C@H](CCC(=O)O)NC(=O)[C@H](CCC(=O)O)NC(=O)Cn2cc(C[N+](C)(C)C[B-](F)(F)F)nn2)C(N)=O)NC(=O)CNC(=O)[C@H](Cc2ccc3ccccc3c2)NC(=O)[C@@H](CCCNC(=N)N)NC1=O` [BL09] (FY[Lys(iPr)][dR][2Nal]G[dE][Lys(iPr)]K([Glu-Glu-Glu-X5])-NH2; lactam N-7), 13.4 ± 2.3 nM.
Regarding “cyclo[Phe-Tyr-Lys(iPr)-D-Arg-2-NaI-Gly-D-Glu]-Lys(iPr)-NH2 [LY2510924]”, at CXCR4 [2], the IC50 is 0.079 nM.
